{"source": "patent US12409187B2", "about": "“PH regulating hydrogels that neutralize cancer cell environment acidosis and increase chemotherapy efficacy” (Brown University, priority 2021, dated 2025)", "assay_type_in_all_cases": "cell-based, human", "key": {"MDA-MB-231 cells": {"tested_on": "MDA-MB-231 cells", "assay": "MTT assay (metabolic activity), Example 2", "conditions": "1 μM doxorubicin", "method": "MTT assay. Measures metabolic activity. Cells reduce membrane permeable salt MTT (yellow) to formazan crystals (purple). Incubate for three days with treatment. Incubate for four hours with MTT. Add solubilization solution. Incubate for twelve hours. Measure absorbance of every well at OD570 nm-OD650 nm. See Riss et al., The Assay Guidance Manual (Eli Lilly & Company and the National Center for Advancing Translational Sciences. Bethesda, MD, USA, 2016). Hydrogels added to 7.4 pH with no drug had decreased metabolic activity. Hydrogels added to 6.5 pH with drug had decreased metabolic activity. Base-releasing hydrogel reduced cell proliferation, migration, and metabolic activity at an alkaline pH. Base-releasing hydrogel improved doxorubicin efficacy against cell proliferation, migration, and metabolic activity at an alkaline pH. Neutral-pH-adapted cells prefer neutral pH.\nThe metabolism of cancer cells can be measured by the activity of the mitochondrial reductase enzyme. […] The metabolic activity of the cells in culture can be measured by this conversion of MTT to formazan crystals. The absorbance can then be recorded at OD570 nm and OD650 nm to quantify the formazan produced by the cells through the mitochondrial reductase conversion from MTT. […] The absorbance is measured spectrophotometrically via a plate reader."}, "[1]": {"tested_on": "MDA-MB-231 breast cancer cells", "assay": "pH-dependent doxorubicin efficacy on cell proliferation", "conditions": "0.25 μM doxorubicin, 5-day treatment"}, "[2]": {"tested_on": "MDA-MB-231 breast cancer cell line", "assay": "Cell proliferation assay (image confluency, manual cell count)", "conditions": "1 μM doxorubicin", "method": "Cell viability. Incubated MDA-MB-231 cells were passaged from a confluent T-flask into a 12-well culture plate, and the treatment hydrogels were added. For the viability study, the effect of modified PEG hydrogels bicarbonate concentrations of 200, 400, 600, and 800 mM was analyzed along with the control group with no treatment (bicarbonate), and a vehicle control of PEG with no bicarbonate. The cells were imaged every twenty-four hours under Nikon TS 100 inverted light microscope attached with Excelis HD camera and processed using an ImageJ image processing macro (performed by Gavin Mays) to estimate cell confluency from the imaged area coverage. At the end of day 5, the number of live and dead cells were estimated by Trypan staining and cell counting using a hemocytometer. Percentage viability was calculated from the number of live cells as a fraction of total cells.\nCell proliferation assay. MDA-MB-231 breast cancer cell line. Cells given pH, hydrogel, sodium bicarbonate, and doxorubicin treatment. At twenty-four hours, cell confluency is observed and recorded via image processing. At Day 6, cell counting was performed using a hemocytometer. All assays increased in confluency. […] Assays without hydrogels consistent with confluency analysis. Assays with any hydrogel have low manual cell counts."}}}
{"compound": "COc1cccc2c1C(=O)c1c(O)c3c(c(O)c1C2=O)C[C@@](O)(C(=O)CO)C[C@@H]3O[C@H]1C[C@H](N)[C@H](O)[C@H](C)O1", "note": "[doxorubicin]", "values": [{"measurement": "metabolic activity versus assays without doxorubicin", "setting": "MDA-MB-231 cells", "value": "statistically significantly less metabolic activity"}, {"measurement": "efficacy at preventing cell proliferation", "setting": "[1]; pH 6.5", "value": 40, "unit": "%"}, {"measurement": "effectiveness at preventing cell proliferation", "setting": "[1]; pH 7.4", "value": "approximately 95%"}, {"measurement": "change of cell proliferation over the six-day trial period", "setting": "[2]", "value": "decrease"}]}
